The source of these data is patent US20120115905A1, “Nitrone, Nitroso, and Nitroxide Spintraps and Spin Labels and Their Hydroxylamines” (priority 2010, published 2012).

Molecules are shown by their SMILES. “Also recorded” adds a separate entry of the source.

For assay [1], the system named is fibrocystic disease of breast. The assay is described as follows: Treatment of fibrocystic disease of breast in a patient. It is filed as in vivo, human. The procedure:
(§1) The reduced form of TEMPOL (TEMPOL-H) or equivalent pharmacologically-active spin label/spintrap is prepared by mixing together 2 grams of TEMPOL or a pharmacologically effective amount of another spin-label or spin trap such as methynitrosopropane, 20 grams of ascorbic acid or other reducing compound in 100 ml of distilled water. The formulation is used as is. The solution is slightly-bitter. The formulation can be administered diluted in a suitable liquid such as juice, tea, or coffee. An equivalent dry form as 10 mg of tempol mixed with 100 mg of acsorbic acid or equivalent reducing substance can be easily prepared in capsule or tablet form.
(§2) One-half ml of the above solution, comprising 10 mg TEMPOL plus 100 mg ascorbic acid, was administered orally once a day to a 50 kg person with a long history for fibrocystic disease of breast so severe that surgeons had recommended mastectomy. The same person had also been previously-diagnoses with severe trigeminal neuralgia.
(§3) Long-term relief can be achieved, but the symptoms eventually reappear on cessation of treatment for a few weeks.

The test system of a further assay is trigeminal neuralgia. The assay is described as follows: Treatment of trigeminal neuralgia in a patient. The assay is classed as in vivo, human. The settings on record: for trigeminal neuralgia (summary statement): humans, route and dose not stated. The procedure: as §1, §2, §3
Assay [2] deals with premenstrual dysphoric disorder. The assay is described as follows: Treatment of premenstrual dysphoric disorder. The assay is classed as in vivo, human. To be noted: for premenstrual dysphoric syndrome and its associated comorbid symptoms (summary statement): humans, route and dose not stated. The method, then: as §1, §2
The subject of a further assay is migraine headache. The assay is described as follows: Treatment of migraine headache. It is filed as in vivo, human. To be noted: for migraine headache (summary statement): humans, route and dose not stated. The procedure:
as §1, §2

The subject of the next assay is post-herpetic neuropathy. The assay is described as follows: Treatment of post-herpetic neuropathy / neuralgia. It is filed as in vivo, human. To be noted: for post-herpetic neuralgia (summary statement): humans, route and dose not stated. The procedure:
as §1
One-half ml of the above solution was orally-administered daily to a middle-aged person with chronic post-herpetic neuropathy of the feet, peridontitis, and gingivitis.

Assay [3] relates to gingivitis and peridontitis. The assay is described as follows: Treatment of gingivitis and peridontitis. It is filed as in vivo, human. The settings on record: for peridontitis and gingivitis (summary statement): humans, route and dose not stated.
The next assay deals with herpes zoster lesions. The assay is described as follows: Treatment of herpes zoster lesions. The assay is classed as in vivo, human. To be noted: for herpes zoster lesions (summary statement): humans, route and dose not stated.
The subject of another assay is influenza. The assay is described as follows: Amelioration of influenza symptomology. It is filed as in vivo, human. The settings on record: for influenza (summary statement): humans, route and dose not stated.
A further assay relates to rectal hemorrhoids. The assay is described as follows: Treatment of rectal hemorrhoids. It is filed as in vivo, human. To be noted: for rectal hemorrhoids (summary statement): humans, route and dose not stated. The procedure:
Boil until methycellulose dissolves (5-10 minutes)
Alternative is I million-dalton MW 1% propylcellulose, which dissolves overnight without boiling.
Add 5 grams TEMPOL with stirring

The next assay has as its system animal models. To be noted: cited from earlier work.
For the next assay, the system named is humans. The settings on record: human clinical trials, even at several grams per day doses; cited from earlier work.
A further assay relates to cyclic vomiting syndrome. The assay is described as follows: Treatment of cyclic vomiting syndrome. It is filed as in vivo, human. To be noted: the above treatment (10 mg TEMPOL plus 100 mg ascorbic acid orally once a day).
Assay [4] relates to peripheral vascular disease. The assay is described as follows: Treatment of peripheral vascular disease. The assay is classed as in vivo, human. The settings on record: the above treatment (10 mg TEMPOL plus 100 mg ascorbic acid orally once a day).
The subject of another assay is rhinositis. The assay is described as follows: Local nasal treatment of rhinositis. It is filed as in vivo, human. To be noted: 0.1 ml applied locally to the nasal cavity.
[5] abbreviates: 10 mg TEMPOL plus 100 mg ascorbic acid orally once a day, same patient.
[6] abbreviates: one-half ml of solution orally daily, middle-aged male.
[7] abbreviates: topical application once a day to the affected area.

As to `CC1(C)CC(O)CC(C)(C)N1[O]` [TEMPOL, 4-hydroxy-2,2,6,6-tetramethylpiperidin-1-yloxy], the “efficacy of Tempol itself (unreduced)” value in assay [1] (same doses as the reduced formulation) is recorded as “effective at the same doses”. Besides, the “trigeminal neuralgia (summary statement)” value in the assay on trigeminal neuralgia is listed as “ameliorate”. Further, the “premenstrual dysphoric syndrome and its associated comorbid symptoms (summary statement)” value in [2] is on record as “ameliorate”. For the same compound, the “migraine headache (summary statement)” value in the assay with migraine headache is “prevent and treat”. Also, the “post-herpetic neuralgia (summary statement)” value with post-herpetic neuropathy was “prevent and treat”. The “gingivitis and peridontitis, local intraoral treatment” value in [3] (0.5 ml of 5% TEMPOL liquid or gel applied to the affected gums for one to three days) is “reducing tenderness and bleeding”. Also, the “peridontitis and gingivitis (summary statement)” value in assay [3] is “ameliorate”. For the same compound, in the assay on herpes zoster lesions, the “herpes zoster lesions (summary statement)” value was “prevent and treat”. In addition, the “influenza (summary statement)” value in the assay on influenza was “ameliorate”. Also, the “symptoms of rectal hemorrhoids” value in the assay on rectal hemorrhoids (0.2 ml of 5% solution (methyl cellulose gel) transrectally for one to three days) was “ameliorates the symptoms of rectal hemorrhoids, especially pain, swelling, and bleeding”. Further, in the assay on rectal hemorrhoids, the “rectal hemorrhoids (summary statement)” value was “ameliorate”.

As for `CC(C)(C)[N+]([O-])=Cc1ccc(S(=O)(=O)[O-])cc1S(=O)(=O)[O-].[Na+].[Na+]` [NXY-059, disulfonyl PBN], the “neuroprotective efficacy in animal models” value in the assay on animal models is on record as “effective in animal models”. In addition, the “neuroprotective efficacy in humans” value in the assay with humans is listed as “not in humans; also recorded: perpetual failure”.

In the case of `CC1(C)CC(O)CC(C)(C)N1O` [TEMPOL-H], the “time until first results appeared” value in [1] (10 mg TEMPOL plus 100 mg ascorbic acid orally once a day, one patient) is on record as 1-2 weeks. Moreover, the “regression / shrinkage of the breast cysts” value in [1] (10 mg TEMPOL plus 100 mg ascorbic acid orally once a day, one patient, mammographic imaging and digital palpation) is listed as “almost complete regression; also recorded: shrinkage of the breast cysts”. In [1] (resumption after cessation of treatment for a few weeks, same oral dose), the “breast cysts upon resumption of treatment” value is reported as “again drastically shrink”. The “effect on long-standing trigeminal neuralgia” value in the assay on trigeminal neuralgia (setting [5]) is “alleviated and prevented”. Moreover, in the assay with trigeminal neuralgia, the “trigeminal neuralgia (summary statement)” value is “ameliorate”. Further, in assay [2] (setting [5]), the “symptoms of anxiety/depression and mood swings outside the premenstrual time period” value was “Efficacy was observed”; the “symptoms of premenstrual dysphoric disorder including comorbidity” value was “alleviates and prevents”. Moreover, in [2], the “premenstrual dysphoric syndrome and its associated comorbid symptoms (summary statement)” value was “ameliorate”. Besides, the “migraine headache (summary statement)” value in the assay with migraine headache is “prevent and treat”. Also, the “migraine headache prevention and symptoms” value in the assay with migraine headache (the above treatment (10 mg TEMPOL plus 100 mg ascorbic acid orally once a day)) is “both prevents migraine headache and ameliorates the symptoms”. In addition, the cyclic vomiting syndrome entry in the assay with cyclic vomiting syndrome was “prevents, controls, and ameliorates”. Also, the peripheral vascular disease result in [4] was “controls, and ameliorates”. Also, in the assay on post-herpetic neuropathy, the “post-herpetic neuralgia (summary statement)” value is “prevent and treat”. The “symptomatic relief of chronic post-herpetic neuropathy of the feet” value with post-herpetic neuropathy (setting [6]) was “Symptomatic relief of all of these was experienced within one week”. Besides, the “post-herpetic neuralgia, topical application” value in the assay on post-herpetic neuropathy (setting [7]) is on record as “also effective”. Further, in [3], the “peridontitis and gingivitis (summary statement)” value is given as “ameliorate”. Further, the “symptomatic relief of peridontitis and gingivitis” value in assay [3] (setting [6]) is listed as “Symptomatic relief of all of these was experienced within one week”. In addition, the “gingivitis and peridontitis, topical application” value in assay [3] (topical application of the reduced TEMPOL solution) is recorded as “also effective”. In the assay on herpes zoster lesions, the “herpes zoster lesions (summary statement)” value was “prevent and treat”. Further, the “herpes zoster lesions, topical application” value in the assay on herpes zoster lesions (setting [7]) is recorded as “also effective”. The “influenza (summary statement)” value in the assay with influenza is “ameliorate”. Also, the symptoms of influenza entry in the assay with influenza (one-half ml orally once or twice daily) was “significantly-ameliorates”. In addition, the rhinositis result in the assay with rhinositis was “ameliorates rhinositis”. Also, the “rectal hemorrhoids (summary statement)” value in the assay on rectal hemorrhoids is “ameliorate”.
